Results taken from patent US20080058373A1, “Compositions and Methods for Treating or Preventing Glaucoma or Progression Thereof” (priority 2006, published 2008).

System: New Zealand White rabbits
Test: Intraocular pressure (IOP) in rabbits, topical dosing four times daily
Assay type: in vivo
Method: Seventy-five rabbits underwent two weeks of IOP training to condition them for IOP measurement. IOP was determined for both eyes of each animal using a Medtronic Solan, Model 30 classic pneumatonometer. Proparacaine hydrochloride 0.5% (1 drop) was delivered to each eye prior to IOP measurement. A two-point diurnal curve was established: IOP was recorded on Monday, Wednesday, and Friday of each week, at 8 a.m. and 12 p.m., with a ±1 hour range for each of these times. The time of the measurements was recorded.
On Days 1-31, animals received daily topical doses of the appropriate test article into the right eye. Animals were dosed four times per day, with doses administered 2 hours apart. Doses were administered using a calibrated 50-μL pipette. The eyelids were held close for 10 seconds immediately following dosing. The time of each dose administration was recorded.
Intraocular pressure (“IOP”) was determined for both eyes of each animal on Days 3, 5, 10, 12, 16, 18, 22, 24, 26, 30, and 32. IOP was evaluated with a Medtronic Solan, Model 30 classic pneumatonometer. Proparacaine hydrochloride 0.5% (1 drop) was delivered to each eye prior to IOP measurement. IOP was measured on Monday, Wednesday, and Friday of each week. A two-point diurnal curve was established: IOP was recorded at 8 a.m. and 12 p.m. on Day 3, and at 8 a.m. and 2 p.m. on later days, with a ±1 hour range for each of these times. The time of the measurements was recorded.
Descriptive statistics were prepared for IOP data of each treatment group (left and right eyes separately) at each measurement interval. The statistics included the number of observations (“N”), mean, standard deviation (“STD”), and standard error (“SEM”). Statistical analyses were conducted on IOP results using Statistical Analysis Systems (SAS Institute, Inc., Cary, N.C., V8.0). Parameters were evaluated using analysis of variance/GLM Procedure followed by Tukey's Standardized Range Test (Tukey, 1985) for post hoc comparisons of group means. The level of significance was set at a probability of p<0.05 for all statistical procedures. Group IOP means were compared at each interval, with left and right eyes compared separately.

**Q.** What does the source list for `Cc1ccc2c(NCC(O)(CC(C)(C)c3cc(F)cc4c3OCC4)C(F)(F)F)cccc2n1` (stereo not shown)?
**A.** Intraocular Pressure (MEAN) (treated right eyes, A.M. readings, Day 32, 1 mg/g (Group D)): 24.9 mmHg; Intraocular Pressure (MEAN) (treated right eyes, A.M. readings, Day 32, 5 mg/g (Group C)): 23.4 mmHg; Intraocular Pressure (MEAN) (treated right eyes, A.M. readings, Day 32, 10 mg/g (Group B)): 23.9 mmHg; Intraocular Pressure (MEAN) (treated right eyes, A.M. readings, Pre-Study, 1 mg/g (Group D)): 24.4 mmHg; Intraocular Pressure (MEAN) (treated right eyes, A.M. readings, Pre-Study, 5 mg/g (Group C)): 24.8 mmHg; Intraocular Pressure (MEAN) (treated right eyes, A.M. readings, Pre-Study, 10 mg/g (Group B)): 24.0 mmHg; Intraocular Pressure (MEAN) (treated right eyes, P.M. readings, Day 3, 1 mg/g (Group D)): 24.7 mmHg; Intraocular Pressure (MEAN) (treated right eyes, P.M. readings, Day 3, 5 mg/g (Group C)): 23.6 mmHg; Intraocular Pressure (MEAN) (treated right eyes, P.M. readings, Day 3, 10 mg/g (Group B)): 23.1 mmHg; Intraocular Pressure (MEAN) (treated right eyes, P.M. readings, Day 5, 1 mg/g (Group D)): 25.5 mmHg; Intraocular Pressure (MEAN) (treated right eyes, P.M. readings, Day 5, 5 mg/g (Group C)): 24.8 mmHg; Intraocular Pressure (MEAN) (treated right eyes, P.M. readings, Day 5, 10 mg/g (Group B)): 25.7 mmHg; Intraocular Pressure (MEAN) (treated right eyes, P.M. readings, Day 10, 1 mg/g (Group D)): 25.3 mmHg; Intraocular Pressure (MEAN) (treated right eyes, P.M. readings, Day 10, 5 mg/g (Group C)): 25.6 mmHg; Intraocular Pressure (MEAN) (treated right eyes, P.M. readings, Day 10, 10 mg/g (Group B)): 24.3 mmHg; Intraocular Pressure (MEAN) (treated right eyes, P.M. readings, Day 12, 1 mg/g (Group D)): 24.0 mmHg; Intraocular Pressure (MEAN) (treated right eyes, P.M. readings, Day 12, 5 mg/g (Group C)): 23.4 mmHg; Intraocular Pressure (MEAN) (treated right eyes, P.M. readings, Day 12, 10 mg/g (Group B)): 23.8 mmHg; Intraocular Pressure (MEAN) (treated right eyes, P.M. readings, Day 16, 1 mg/g (Group D)): 22.0 mmHg; Intraocular Pressure (MEAN) (treated right eyes, P.M. readings, Day 16, 5 mg/g (Group C)): 21.4 mmHg; Intraocular Pressure (MEAN) (treated right eyes, P.M. readings, Day 16, 10 mg/g (Group B)): 21.6 mmHg; Intraocular Pressure (MEAN) (treated right eyes, P.M. readings, Day 18, 1 mg/g (Group D)): 23.1 mmHg; Intraocular Pressure (MEAN) (treated right eyes, P.M. readings, Day 18, 5 mg/g (Group C)): 21.6 mmHg; Intraocular Pressure (MEAN) (treated right eyes, P.M. readings, Day 18, 10 mg/g (Group B)): 22.5 mmHg; Intraocular Pressure (MEAN) (treated right eyes, P.M. readings, Day 22, 1 mg/g (Group D)): 22.5 mmHg; Intraocular Pressure (MEAN) (treated right eyes, P.M. readings, Day 22, 5 mg/g (Group C)): 22.8 mmHg; Intraocular Pressure (MEAN) (treated right eyes, P.M. readings, Day 22, 10 mg/g (Group B)): 23.1 mmHg; Intraocular Pressure (MEAN) (treated right eyes, P.M. readings, Day 24, 1 mg/g (Group D)): 23.6 mmHg; Intraocular Pressure (MEAN) (treated right eyes, P.M. readings, Day 24, 5 mg/g (Group C)): 23.4 mmHg; Intraocular Pressure (MEAN) (treated right eyes, P.M. readings, Day 24, 10 mg/g (Group B)): 22.8 mmHg; Intraocular Pressure (MEAN) (treated right eyes, P.M. readings, Day 26, 1 mg/g (Group D)): 22.6 mmHg; Intraocular Pressure (MEAN) (treated right eyes, P.M. readings, Day 26, 5 mg/g (Group C)): 22.2 mmHg; Intraocular Pressure (MEAN) (treated right eyes, P.M. readings, Day 26, 10 mg/g (Group B)): 20.9 mmHg; Intraocular Pressure (MEAN) (treated right eyes, P.M. readings, Day 30, 10 mg/g (Group B)): 22.4 mmHg; Intraocular Pressure (MEAN) (untreated left eyes, P.M. readings, Day 3, 1 mg/g (Group D)): 25.0 mmHg; Intraocular Pressure (MEAN) (untreated left eyes, P.M. readings, Day 3, 5 mg/g (Group C)): 23.9 mmHg; Intraocular Pressure (MEAN) (untreated left eyes, P.M. readings, Day 3, 10 mg/g (Group B)): 23.3 mmHg; Intraocular Pressure (MEAN) (untreated left eyes, P.M. readings, Day 5, 1 mg/g (Group D)): 24.7 mmHg; Intraocular Pressure (MEAN) (untreated left eyes, P.M. readings, Day 5, 5 mg/g (Group C)): 24.8 mmHg; Intraocular Pressure (MEAN) (untreated left eyes, P.M. readings, Day 5, 10 mg/g (Group B)): 25.2 mmHg; Intraocular Pressure (MEAN) (untreated left eyes, P.M. readings, Day 10, 1 mg/g (Group D)): 24.9 mmHg; Intraocular Pressure (MEAN) (untreated left eyes, P.M. readings, Day 10, 5 mg/g (Group C)): 24.6 mmHg; Intraocular Pressure (MEAN) (untreated left eyes, P.M. readings, Day 10, 10 mg/g (Group B)): 23.5 mmHg; Intraocular Pressure (MEAN) (untreated left eyes, P.M. readings, Day 12, 1 mg/g (Group D)): 23.7 mmHg; Intraocular Pressure (MEAN) (untreated left eyes, P.M. readings, Day 12, 5 mg/g (Group C)): 23.3 mmHg; Intraocular Pressure (MEAN) (untreated left eyes, P.M. readings, Day 12, 10 mg/g (Group B)): 24.1 mmHg; Intraocular Pressure (MEAN) (untreated left eyes, P.M. readings, Day 16, 1 mg/g (Group D)): 21.9 mmHg; Intraocular Pressure (MEAN) (untreated left eyes, P.M. readings, Day 16, 5 mg/g (Group C)): 20.4 mmHg; Intraocular Pressure (MEAN) (untreated left eyes, P.M. readings, Day 16, 10 mg/g (Group B)): 21.4 mmHg; Intraocular Pressure (MEAN) (untreated left eyes, P.M. readings, Day 18, 1 mg/g (Group D)): 22.7 mmHg; Intraocular Pressure (MEAN) (untreated left eyes, P.M. readings, Day 18, 5 mg/g (Group C)): 21.9 mmHg; Intraocular Pressure (MEAN) (untreated left eyes, P.M. readings, Day 18, 10 mg/g (Group B)): 22.1 mmHg; Intraocular Pressure (MEAN) (untreated left eyes, P.M. readings, Day 22, 1 mg/g (Group D)): 22.1 mmHg; Intraocular Pressure (MEAN) (untreated left eyes, P.M. readings, Day 22, 5 mg/g (Group C)): 22.1 mmHg; Intraocular Pressure (MEAN) (untreated left eyes, P.M. readings, Day 22, 10 mg/g (Group B)): 22.6 mmHg; Intraocular Pressure (MEAN) (untreated left eyes, P.M. readings, Day 24, 1 mg/g (Group D)): 22.9 mmHg; Intraocular Pressure (MEAN) (untreated left eyes, P.M. readings, Day 24, 5 mg/g (Group C)): 22.2 mmHg; Intraocular Pressure (MEAN) (untreated left eyes, P.M. readings, Day 24, 10 mg/g (Group B)): 22.8 mmHg; Intraocular Pressure (MEAN) (untreated left eyes, P.M. readings, Day 26, 1 mg/g (Group D)): 22.1 mmHg; Intraocular Pressure (MEAN) (untreated left eyes, P.M. readings, Day 26, 5 mg/g (Group C)): 22.3 mmHg; Intraocular Pressure (MEAN) (untreated left eyes, P.M. readings, Day 26, 10 mg/g (Group B)): 21.4 mmHg; Intraocular Pressure (MEAN) (untreated left eyes, P.M. readings, Day 30, 1 mg/g (Group D)): 21.3 mmHg; Intraocular Pressure (MEAN) (untreated left eyes, P.M. readings, Day 30, 5 mg/g (Group C)): 20.9 mmHg; Intraocular Pressure (MEAN) (untreated left eyes, P.M. readings, Day 30, 10 mg/g (Group B)): 21.7 mmHg; Intraocular Pressure (MEAN) (untreated left eyes, P.M. readings, Day 32, 1 mg/g (Group D)): 21.9 mmHg; Intraocular Pressure (MEAN) (untreated left eyes, P.M. readings, Day 32, 5 mg/g (Group C)): 21.5 mmHg; Intraocular Pressure (MEAN) (untreated left eyes, P.M. readings, Day 32, 10 mg/g (Group B)): 22.6 mmHg; Intraocular Pressure (MEAN) (untreated left eyes, P.M. readings, Pre-Study, 1 mg/g (Group D)): 24.2 mmHg; Intraocular Pressure (MEAN) (untreated left eyes, P.M. readings, Pre-Study, 5 mg/g (Group C)): 24.4 mmHg; Intraocular Pressure (MEAN) (untreated left eyes, P.M. readings, Pre-Study, 10 mg/g (Group B)): 23.9 mmHg
